Target: T1, Recombinant human liver GK1 (GST-GK) (Homo sapiens, UniProt P35557)
T1 construct: made in house; host or cells: E. coli
T1 sequence (P35557 1-466 isoform P35557-2): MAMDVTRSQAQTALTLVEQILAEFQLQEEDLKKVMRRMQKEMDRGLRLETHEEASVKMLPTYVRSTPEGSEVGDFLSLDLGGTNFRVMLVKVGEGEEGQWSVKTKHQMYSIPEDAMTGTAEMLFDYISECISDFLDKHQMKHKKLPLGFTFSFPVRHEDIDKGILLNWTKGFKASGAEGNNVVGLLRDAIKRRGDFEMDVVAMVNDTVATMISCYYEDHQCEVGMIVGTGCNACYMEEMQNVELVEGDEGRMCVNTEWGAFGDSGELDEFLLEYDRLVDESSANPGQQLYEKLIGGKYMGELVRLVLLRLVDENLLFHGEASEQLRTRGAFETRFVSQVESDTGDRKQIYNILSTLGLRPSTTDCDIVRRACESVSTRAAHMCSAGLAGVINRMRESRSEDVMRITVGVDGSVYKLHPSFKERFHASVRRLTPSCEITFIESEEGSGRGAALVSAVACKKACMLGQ
Assay: In vitro glucokinase activity, G6PDH-coupled spectrophotometric assay
Type: biochemical
Details: 5 mM D-glucose, 30° C., pH 7.1
How it was run: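 GST-fused human liver GK1 from E. coli, run at 30° C. in pH 7.1 HEPES with 5 mM glucose, 1 mM ATP and 10% DMSO, coupled via G6PDH to NADH. OD340 rate measured after enzyme start; SC1.5 is the activator concentration raising activity 50% over DMSO control.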

SMILES	SC1.5 (concentration of activator that produced a 50% increase in the activity of GK)
Cn1ccc(NC(=O)C(CC2CCCC2)N2C(=O)Cc3ccc(Cl)cc32)n1 (stereo not drawn) [Example 124, 2-(6-Chloro-2-oxo-2,3-dihydro-indol-1-yl)-3-cyclopentyl-N-(1-methyl-1H-pyrazol-3-yl)-propionamide]	1.1 µM
O=C(Nc1nccs1)C(CC1CCCC1)N1C(=O)Cc2ccc(F)cc21 (stereo not drawn) [Example 125, 3-Cyclopentyl-2-(6-fluoro-2-oxo-2,3-dihydro-indol-1-yl)-N-thiazol-2-yl-propionamide]	0.45 µM
Cn1ccc(NC(=O)C(CC2CCCC2)N2C(=O)Cc3ccc(F)cc32)n1 (stereo not drawn) [Example 126, 3-Cyclopentyl-2-(6-fluoro-2-oxo-2,3-dihydro-indol-1-yl)-N-(1-methyl-1H-pyrazol-3-yl)-propionamide]	1.86 µM
O=C(Nc1ccccn1)C(CC1CCCC1)N1C(=O)Cc2ccc(F)cc21 (stereo not drawn) [Example 127, 3-Cyclopentyl-2-(6-fluoro-2-oxo-2,3-dihydro-indol-1-yl)-N-pyridin-2-yl-propionamide]	0.18 µM
O=C(Nc1cnccn1)C(CC1CCCC1)N1C(=O)Cc2ccc(F)cc21 (stereo not drawn) [Example 128, 3-Cyclopentyl-2-(6-fluoro-2-oxo-2,3-dihydro-indol-1-yl)-N-pyrazin-2-yl-propionamide]	0.81 µM
Cc1ccc2c(c1)N(C(CC1CCCC1)C(=O)Nc1nccs1)C(=O)C2 (stereo not drawn) [Example 129, 3-Cyclopentyl-2-(6-methyl-2-oxo-2,3-dihydro-indol-1-yl)-N-thiazol-2-yl-propionamide]	0.53 µM
Cc1ccc2c(c1)N(C(CC1CCCC1)C(=O)Nc1cnccn1)C(=O)C2 (stereo not drawn) [Example 130, 3-Cyclopentyl-2-(6-methyl-2-oxo-2,3-dihydro-indol-1-yl)-N-pyrazin-2-yl-propionamide]	0.61 µM
Cc1ccc2c(c1)N(C(CC1CCCC1)C(=O)Nc1ccn(C)n1)C(=O)C2 (stereo not drawn) [Example 131, 3-Cyclopentyl-2-(6-methyl-2-oxo-2,3-dihydro-indol-1-yl)-N-(1-methyl-1H-pyrazol-3-yl)-propionamide]	2.28 µM
Cc1ccc2c(c1)N(C(CC1CCCC1)C(=O)Nc1ccccn1)C(=O)C2 (stereo not drawn) [Example 132, 3-Cyclopentyl-2-(6-methyl-2-oxo-2,3-dihydro-indol-1-yl)-N-pyridin-2-yl-propionamide]	0.23 µM
O=C(Nc1cnccn1)C(CC1CCCC1)N1C(=O)Cc2ccc(Br)cc21 (stereo not drawn) [Example 133, 2-(6-Bromo-2-oxo-2,3-dihydro-indol-1-yl)-3-cyclopentyl-N-pyrazin-2-yl-propionamide]	0.34 µM
O=C(Nc1nccs1)C(CC1CCCC1)N1C(=O)Cc2ccc(Br)cc21 (stereo not drawn) [Example 134, 2-(6-Bromo-2-oxo-2,3-dihydro-indol-1-yl)-3-cyclopentyl-N-thiazol-2-yl-propionamide]	0.19 µM
O=C(Nc1ccccn1)C(CC1CCCC1)N1C(=O)Cc2ccc(Br)cc21 (stereo not drawn) [Example 135, 2-(6-Bromo-2-oxo-2,3-dihydro-indol-1-yl)-3-cyclopentyl-N-pyridin-2-yl-propionamide]	0.12 µM
Cn1ccc(NC(=O)C(CC2CCCC2)N2C(=O)Cc3ccc(Br)cc32)n1 (stereo not drawn) [Example 136, 2-(6-Bromo-2-oxo-2,3-dihydro-indol-1-yl)-3-cyclopentyl-N-(1-methyl-1H-pyrazol-3-yl)-propionamide]	0.88 µM
N#Cc1ccc2c(c1)N(C(CC1CCCC1)C(=O)Nc1ccccn1)C(=O)C2 (stereo not drawn) [Example 137, 2-(6-Cyano-2-oxo-2,3-dihydro-indol-1-yl)-3-cyclopentyl-N-pyridin-2-yl-propionamide]	1.91 µM
CS(=O)(=O)c1ccc2c(c1)N(C(CC1CCCC1)C(=O)Nc1nccs1)C(=O)C2 (stereo not drawn) [Example 138, 3-Cyclopentyl-2-(6-methanesulfonyl-2-oxo-2,3-dihydro-indol-1-yl)-N-thiazol-2-yl-propionamide]	2.94 µM

— patent US20120142705A1, “ISATIN AND OXINDOLE COMPOUNDS” (priority 2010, published 2012)
